Experiment [1] concerns depolarization-dependent ATP release from electric organ synaptosomes. It is filed as biochemical, Ommata discopyge. The note with it: read-out: IC50 (ATP release inhibition).
The target in experiment [2] is OCT binding site, rat brain synaptosomes (Rattus norvegicus, UniProt Q02294). Kind of experiment: biochemical.
Experiment [3] deals with voltage-gated calcium channels, dorsal root ganglion (DRG) neurons. The following applies: cited from earlier work.
The test system of experiment [4] is hippocampal CA1 region, gerbil global ischemia model. On the set-up: species or system Meriones unguiculatus (mongolian gerbil). The following applies: in vivo.
The target in experiment [5] is OCT binding sites, elasmobranch electric organ synaptosomes (Diplobatis ommata, UniProt P56698). Kind of experiment: biochemical. On the set-up: species or system Ommata dyscopyge (marine electric ray).
For experiment [6], the system named is hippocampal CA1 region, rat four-vessel occlusion model. On the set-up: species or system rat (Fisher 344). The note with it: in vivo.
Experiment [7] deals with OCT receptor sites, PC-12 rat pheochromocytoma cells (Rattus norvegicus, UniProt Q02294). It is filed as binding.
Experiment [8] has as its system Male Swiss-Webster mice. The following applies: mouse, in vivo; cited from earlier work.
Experiment [9] deals with OCT receptor sites, 293 human kidney cells. The format is binding.

Where “and” joins values, the source holds several entries; their conditions need not be identical. Identical values can stand only once. Bridge positions count the residues as written; N and C are the ends. Square brackets hold non-standard residues; d marks the D form. Peptide text beside a SMILES is read from it. Hyp = O=C(O)[C@@H]1C[C@@H](O)CN1 Some results are limits rather than exact numbers.

These results are taken from US5051403A (priority 1989, dated 1991).

OCT binding site, rat brain synaptosomes, sequence (Q02294 whole entry, looked up): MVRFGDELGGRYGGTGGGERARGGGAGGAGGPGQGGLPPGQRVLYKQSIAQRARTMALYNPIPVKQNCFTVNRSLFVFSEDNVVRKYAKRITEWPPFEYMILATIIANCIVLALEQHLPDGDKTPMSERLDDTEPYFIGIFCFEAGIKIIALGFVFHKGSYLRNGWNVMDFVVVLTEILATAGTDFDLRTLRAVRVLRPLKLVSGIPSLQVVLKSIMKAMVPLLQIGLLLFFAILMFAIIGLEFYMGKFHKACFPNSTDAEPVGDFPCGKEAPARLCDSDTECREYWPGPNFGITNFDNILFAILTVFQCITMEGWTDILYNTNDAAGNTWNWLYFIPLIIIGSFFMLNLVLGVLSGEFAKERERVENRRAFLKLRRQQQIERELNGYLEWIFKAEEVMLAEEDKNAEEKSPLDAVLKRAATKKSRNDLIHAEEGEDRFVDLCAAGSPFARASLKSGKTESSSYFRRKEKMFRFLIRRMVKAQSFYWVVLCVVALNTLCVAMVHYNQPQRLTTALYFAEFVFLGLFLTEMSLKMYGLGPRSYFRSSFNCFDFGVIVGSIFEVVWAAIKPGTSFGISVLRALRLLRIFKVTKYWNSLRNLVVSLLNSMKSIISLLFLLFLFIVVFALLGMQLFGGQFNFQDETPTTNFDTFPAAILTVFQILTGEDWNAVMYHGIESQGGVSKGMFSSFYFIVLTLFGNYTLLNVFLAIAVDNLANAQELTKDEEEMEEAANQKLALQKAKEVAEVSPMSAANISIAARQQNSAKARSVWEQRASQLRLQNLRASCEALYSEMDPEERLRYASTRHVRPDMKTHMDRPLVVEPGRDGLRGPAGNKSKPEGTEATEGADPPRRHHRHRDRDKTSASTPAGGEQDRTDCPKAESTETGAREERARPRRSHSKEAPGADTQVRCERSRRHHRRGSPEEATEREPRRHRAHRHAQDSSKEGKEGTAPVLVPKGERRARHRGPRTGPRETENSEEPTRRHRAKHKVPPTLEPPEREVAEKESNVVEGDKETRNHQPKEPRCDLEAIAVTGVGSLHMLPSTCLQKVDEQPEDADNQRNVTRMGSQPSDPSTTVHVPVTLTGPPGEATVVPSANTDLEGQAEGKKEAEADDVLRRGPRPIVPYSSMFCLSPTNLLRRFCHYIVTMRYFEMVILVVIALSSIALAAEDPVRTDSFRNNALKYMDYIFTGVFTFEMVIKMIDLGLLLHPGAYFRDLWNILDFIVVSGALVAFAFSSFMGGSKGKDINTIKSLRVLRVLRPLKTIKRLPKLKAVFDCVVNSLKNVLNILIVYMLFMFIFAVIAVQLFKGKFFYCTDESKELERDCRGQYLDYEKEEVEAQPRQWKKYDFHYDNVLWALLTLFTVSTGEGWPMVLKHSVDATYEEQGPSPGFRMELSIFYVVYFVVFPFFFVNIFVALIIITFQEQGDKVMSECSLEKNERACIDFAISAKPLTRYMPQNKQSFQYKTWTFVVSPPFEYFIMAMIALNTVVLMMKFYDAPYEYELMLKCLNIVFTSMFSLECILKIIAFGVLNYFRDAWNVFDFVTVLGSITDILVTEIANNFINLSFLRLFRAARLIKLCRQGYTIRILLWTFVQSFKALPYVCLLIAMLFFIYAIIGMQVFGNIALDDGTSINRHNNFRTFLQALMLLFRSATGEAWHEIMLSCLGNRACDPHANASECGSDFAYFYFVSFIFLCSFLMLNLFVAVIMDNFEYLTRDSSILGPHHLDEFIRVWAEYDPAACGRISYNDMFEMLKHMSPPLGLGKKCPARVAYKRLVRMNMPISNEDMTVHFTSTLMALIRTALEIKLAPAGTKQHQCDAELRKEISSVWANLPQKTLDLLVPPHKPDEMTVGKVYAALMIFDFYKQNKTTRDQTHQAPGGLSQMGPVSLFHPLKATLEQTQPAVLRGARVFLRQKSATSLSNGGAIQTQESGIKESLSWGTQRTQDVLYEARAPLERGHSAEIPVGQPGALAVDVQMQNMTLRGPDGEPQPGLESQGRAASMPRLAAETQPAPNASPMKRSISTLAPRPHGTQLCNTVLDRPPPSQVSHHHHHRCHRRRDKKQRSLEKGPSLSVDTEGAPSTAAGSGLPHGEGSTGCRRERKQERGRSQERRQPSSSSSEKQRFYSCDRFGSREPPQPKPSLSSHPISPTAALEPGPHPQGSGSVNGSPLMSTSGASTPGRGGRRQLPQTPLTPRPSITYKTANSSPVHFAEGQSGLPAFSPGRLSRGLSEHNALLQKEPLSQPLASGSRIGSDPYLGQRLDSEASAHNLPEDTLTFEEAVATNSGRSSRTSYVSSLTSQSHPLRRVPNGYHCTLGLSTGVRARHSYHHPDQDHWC
OCT binding sites, elasmobranch electric organ synaptosomes, sequence (P56698 whole entry, looked up): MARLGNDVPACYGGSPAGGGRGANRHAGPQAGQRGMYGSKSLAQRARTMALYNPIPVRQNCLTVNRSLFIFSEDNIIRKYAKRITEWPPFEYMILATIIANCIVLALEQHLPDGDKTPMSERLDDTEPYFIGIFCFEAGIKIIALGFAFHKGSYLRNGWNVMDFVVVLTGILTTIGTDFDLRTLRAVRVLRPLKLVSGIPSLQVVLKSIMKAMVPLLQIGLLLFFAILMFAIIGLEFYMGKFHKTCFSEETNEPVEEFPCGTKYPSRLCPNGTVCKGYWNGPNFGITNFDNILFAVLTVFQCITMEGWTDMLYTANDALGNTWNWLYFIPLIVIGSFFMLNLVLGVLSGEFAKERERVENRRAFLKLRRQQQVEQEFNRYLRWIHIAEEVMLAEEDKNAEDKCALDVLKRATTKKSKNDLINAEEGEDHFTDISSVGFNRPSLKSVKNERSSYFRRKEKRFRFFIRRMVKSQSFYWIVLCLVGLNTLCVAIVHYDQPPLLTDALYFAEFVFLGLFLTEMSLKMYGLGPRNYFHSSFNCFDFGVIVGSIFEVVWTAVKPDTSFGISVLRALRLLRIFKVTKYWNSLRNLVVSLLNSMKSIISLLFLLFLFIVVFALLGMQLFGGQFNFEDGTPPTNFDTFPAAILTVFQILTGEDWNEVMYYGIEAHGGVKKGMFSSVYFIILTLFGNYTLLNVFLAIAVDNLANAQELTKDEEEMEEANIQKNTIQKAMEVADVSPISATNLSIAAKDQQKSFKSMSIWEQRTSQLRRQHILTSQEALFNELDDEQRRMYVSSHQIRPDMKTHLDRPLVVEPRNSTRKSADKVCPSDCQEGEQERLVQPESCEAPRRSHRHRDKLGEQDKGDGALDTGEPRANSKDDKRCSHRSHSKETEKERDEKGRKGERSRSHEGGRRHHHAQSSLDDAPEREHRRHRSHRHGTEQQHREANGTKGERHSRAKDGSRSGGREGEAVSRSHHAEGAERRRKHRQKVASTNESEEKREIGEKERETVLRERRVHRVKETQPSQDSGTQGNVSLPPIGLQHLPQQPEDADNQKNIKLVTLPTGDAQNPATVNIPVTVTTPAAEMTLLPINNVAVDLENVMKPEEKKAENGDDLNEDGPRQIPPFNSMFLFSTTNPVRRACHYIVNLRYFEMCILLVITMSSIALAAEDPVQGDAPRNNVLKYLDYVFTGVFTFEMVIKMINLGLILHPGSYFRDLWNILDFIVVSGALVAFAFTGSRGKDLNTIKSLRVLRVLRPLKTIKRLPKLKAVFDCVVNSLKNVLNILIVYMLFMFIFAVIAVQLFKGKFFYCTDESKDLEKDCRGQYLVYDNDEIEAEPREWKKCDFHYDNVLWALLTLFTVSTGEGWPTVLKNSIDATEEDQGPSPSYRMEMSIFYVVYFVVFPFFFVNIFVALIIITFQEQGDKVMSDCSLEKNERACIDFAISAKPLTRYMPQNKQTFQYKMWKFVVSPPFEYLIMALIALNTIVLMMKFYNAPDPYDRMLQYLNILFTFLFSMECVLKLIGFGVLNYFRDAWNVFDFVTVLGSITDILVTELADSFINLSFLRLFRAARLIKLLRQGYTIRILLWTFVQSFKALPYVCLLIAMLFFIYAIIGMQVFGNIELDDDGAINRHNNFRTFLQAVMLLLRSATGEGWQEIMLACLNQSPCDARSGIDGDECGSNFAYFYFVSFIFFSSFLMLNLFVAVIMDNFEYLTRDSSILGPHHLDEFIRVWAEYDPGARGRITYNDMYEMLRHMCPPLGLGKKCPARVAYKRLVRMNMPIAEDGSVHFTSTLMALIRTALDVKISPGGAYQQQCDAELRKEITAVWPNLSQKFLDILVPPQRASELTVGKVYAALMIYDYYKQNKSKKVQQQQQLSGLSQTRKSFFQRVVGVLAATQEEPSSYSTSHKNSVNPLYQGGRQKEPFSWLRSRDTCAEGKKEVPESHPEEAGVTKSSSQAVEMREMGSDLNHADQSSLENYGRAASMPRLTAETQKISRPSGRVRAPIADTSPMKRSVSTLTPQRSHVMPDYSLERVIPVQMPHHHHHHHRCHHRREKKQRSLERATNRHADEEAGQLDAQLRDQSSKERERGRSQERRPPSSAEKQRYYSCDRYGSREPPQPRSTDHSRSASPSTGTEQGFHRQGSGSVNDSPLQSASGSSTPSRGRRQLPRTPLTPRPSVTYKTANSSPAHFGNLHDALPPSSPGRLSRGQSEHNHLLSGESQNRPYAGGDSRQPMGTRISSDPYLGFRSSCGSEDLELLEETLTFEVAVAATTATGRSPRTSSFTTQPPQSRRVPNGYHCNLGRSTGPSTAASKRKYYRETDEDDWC
OCT receptor sites, PC-12 rat pheochromocytoma cells, sequence (Q02294 whole entry, looked up): as the sequence (Q02294 whole entry, looked up) above

The term IC50 denotes the point on the concentration scale where inhibition reaches its midpoint. A word on the Ki: it is a dissociation constant, usually derived from enzyme kinetics or from competition with a known ligand. With `C[C@@H](O)[C@@H]1NC(=O)[C@H](Cc2ccc(O)cc2)NC(=O)[C@@H]2C[C@@H](O)CN2C(=O)[C@H](CC(N)=O)NC(=O)[C@@H]2CSSC[C@@H]3NC(=O)[C@H](CO)NC(=O)[C@H](CO)NC(=O)CNC(=O)[C@@H]4C[C@@H](O)CN4C(=O)[C@H](CO)NC(=O)[C@H](CCCCN)NC(=O)[C@@H](N)CSSC[C@H](NC(=O)[C@H](CSSC[C@@H](C(=O)N[C@@H](Cc4ccc(O)cc4)C(N)=O)NC(=O)[C@H](CCCNC(=N)N)NC(=O)[C@H](CCCCN)NC1=O)NC(=O)[C@H](CC(N)=O)NC(=O)[C@H](Cc1ccc(O)cc1)NC(=O)[C@H](CO)NC(=O)[C@H]([C@@H](C)O)NC(=O)[C@@H]1C[C@@H](O)CN1C(=O)[C@H](CO)NC3=O)C(=O)N[C@@H](CCCNC(=N)N)C(=O)N[C@@H](CO)C(=O)N2` [GVIA, HCysLysSer4HypGlySerSerCysSer4HypThrSerTyrAsnCysCysArgSerCysAsn4HypTyrLysArgCysTyr-NH2], the IC50 in [1] was found to be 0.2 µM. For the same compound, in experiment [2], the IC50 amounted to 0.00048 µM. The “block of voltage-gated calcium channels” value in [3] is “block voltage-gated calcium channels”. In addition, in [4], the “Mean score (S.E.M), CA1 damage 0-4” value was 1.3 (.33) and 1.2 (.39); the “Percent Damage” value was 42% and 39%; the reduction in damage was over 50%. This compound also gave a Ki in [5] (pKi) of 0.0141 µM.
Compound `CSCC[C@@H]1NC(=O)CNC(=O)[C@H](CCCNC(=N)N)NC(=O)[C@H](CO)NC(=O)[C@@H]2CSSC[C@@H]3NC(=O)[C@H](CO)NC(=O)[C@H]([C@@H](C)O)NC(=O)[C@H](CSSC[C@H](N)C(=O)N[C@@H](CCCCN)C(=O)N[C@@H](CO)C(=O)N4C[C@H](O)C[C@H]4C(=O)NCC(=O)N[C@@H]([C@@H](C)O)C(=O)N4C[C@H](O)C[C@H]4C(=O)N2)NC(=O)[C@H](CSSC[C@@H](C(=O)N[C@@H](CCCNC(=N)N)C(=O)N[C@@H](CCCNC(=N)N)C(=O)N[C@@H](Cc2ccc(O)cc2)C(N)=O)NC(=O)[C@H](CCCCN)NC(=O)[C@H](CC(N)=O)NC(=O)[C@H](CO)NC(=O)[C@H](Cc2ccc(O)cc2)NC(=O)[C@H](CC(C)C)NC(=O)[C@H](CC(C)C)NC3=O)NC(=O)[C@H](CC(=O)O)NC(=O)[C@H](CCCNC(=N)N)NC1=O` [GVIIA] (H-CKS[Hyp]GT[Hyp]CSRGMRDCCTSCLLYSNKCRRY-NH2; disulfide 1-16, 8-19, 15-26) registered an IC50 in [2] of 0.0229 µM. The Ki in [5] (pKi) is 0.00309 µM.
On to `CSCC[C@@H]1NC(=O)[C@H](CC(C)C)NC(=O)[C@H](CCCNC(=N)N)NC(=O)[C@H](CO)NC(=O)[C@@H]2CSSC[C@@H]3NC(=O)[C@H](CO)NC(=O)CNC(=O)[C@H]([C@@H](C)O)NC(=O)[C@H](CSSC[C@H](N)C(=O)N[C@@H](CCCCN)C(=O)NCC(=O)N[C@@H](CCCCN)C(=O)NCC(=O)N[C@@H](C)C(=O)N[C@@H](CCCCN)C(=O)N2)NC(=O)[C@H](CSSC[C@@H](C(N)=O)NC(=O)[C@H](CCCCN)NC(=O)CNC(=O)[C@H](CO)NC(=O)[C@H](CCCNC(=N)N)NC3=O)NC(=O)[C@H](CC(=O)O)NC(=O)[C@H](Cc2ccc(O)cc2)NC1=O` [MVIIA], for which the “Mean score (S.E.M), CA1 damage 0-4” value in experiment [6] is on record as 1.2 (0.36). Further, the IC50 in experiment [1] stood at 0.03 µM. For the same compound, the “concentration of specific binding sites” value in experiment [7] is 56.6 and 79.1; in experiment [9], under 4.6. Further, the “effect of ICV administration in mice” value in experiment [8] is “whole-body tremors”.
Turning to `C[C@@H]1NC(=O)CNC(=O)[C@H](CCCCN)NC(=O)CNC(=O)[C@H](CCCCN)NC(=O)[C@@H](N)CSSC[C@@H]2NC(=O)[C@@H]3CSSC[C@@H](C(N)=O)NC(=O)[C@H](CCCCN)NC(=O)CNC(=O)[C@H](CCCNC(=N)N)NC(=O)[C@H](CC(N)=O)NC(=O)[C@H](CSSC[C@H](NC(=O)[C@H](CO)NC1=O)C(=O)N[C@@H](Cc1c[nH]cn1)C(=O)N[C@@H](CCCNC(=N)N)C(=O)N[C@@H]([C@@H](C)O)C(=O)N[C@@H](CO)C(=O)N[C@@H](Cc1ccc(O)cc1)C(=O)N[C@@H](CC(=O)O)C(=O)N3)NC(=O)[C@H](CO)NC(=O)CNC(=O)[C@H]([C@@H](C)O)NC2=O` [MVIIB] (H-CKGKGASCHRTSYDCCTGSCNRGKC-NH2; disulfide 1-16, 8-20, 15-25), the IC50 in experiment [2] stood at 0.00049 µM. The same compound had a Ki in [5] (pKi) of 0.0219 µM.
Regarding `CC(C)[C@@H]1NC(=O)[C@H](CCCNC(=N)N)NC(=O)[C@@H]2CSSC[C@@H]3NC(=O)[C@H](CO)NC(=O)[C@H](CO)NC(=O)[C@H](CSSC[C@H](N)C(=O)N[C@@H](CCCCN)C(=O)N4CCC[C@H]4C(=O)N4C[C@H](O)C[C@H]4C(=O)NCC(=O)N[C@@H](CO)C(=O)N4C[C@H](O)C[C@H]4C(=O)N2)NC(=O)[C@H](CSSC[C@@H](C(=O)NCC(N)=O)NC(=O)[C@H](CCCCN)NC(=O)[C@H](CCCCN)NC(=O)[C@H](CC(N)=O)NC(=O)[C@H](Cc2ccc(O)cc2)NC(=O)[C@H](CO)NC(=O)[C@H](CCCCN)NC3=O)NC(=O)[C@H](CC(N)=O)NC(=O)[C@H](Cc2ccc(O)cc2)NC(=O)[C@H](CO)NC(=O)[C@H](CO)NC1=O` [RVIA] (H-CKP[Hyp]GS[Hyp]CRVSSYNCCSSCKSYNKKCG-NH2; disulfide 1-16, 8-19, 15-26), the IC50 in experiment [2] is 0.229 µM. For the same compound, the Ki is 0.324 µM in [5] (Ki) and 0.355 µM in experiment [5] (pKi).
Consider `CC[C@H](C)[C@@H]1NC(=O)[C@H](CO)NC(=O)[C@H]([C@@H](C)O)NC(=O)[C@H](C(C)C)NC(=O)CNC(=O)[C@@H]2CSSC[C@@H]3NC(=O)[C@H](CCCNC(=N)N)NC(=O)CNC(=O)[C@H](CSSC[C@H](N)C(=O)N[C@@H](CCCNC(=N)N)C(=O)N[C@@H](CO)C(=O)N[C@@H](CO)C(=O)NCC(=O)N[C@@H](CO)C(=O)N4C[C@H](O)C[C@H]4C(=O)N[C@@H](Cc4c[nH]cn4)C(=O)N2)NC(=O)[C@H](CSSC[C@@H](C(=O)N[C@H](C(N)=O)[C@@H](C)O)NC(=O)[C@H](CCCCN)NC(=O)CNC(=O)[C@H](CCCNC(=N)N)NC(=O)[C@H](Cc2ccc(O)cc2)NC3=O)NC1=O` [SVIA, H-CysArgSerSerGlySer4HypHisCysGlyValThrSerIleCysCysGly ArgCysTyrArgGlyLysCysThr-NH2] (H-CRSSGS[Hyp]HCGVTSICCGRCYRGKCT-NH2; disulfide 1-16, 9-19, 15-24), for which, in experiment [2], the IC50 is over 1000 µM. Also, in experiment [5], the “binding affinity/activity (in words)” value is reported as “relatively low affinity binding”. The Ki in experiment [5] (pKi) is over 1000 µM.
Take `CC(C)C[C@@H]1NC(=O)[C@H](CCCCN)NC(=O)[C@@H](N)CSSC[C@@H]2NC(=O)[C@@H]3CSSC[C@@H](C(N)=O)NC(=O)[C@H](CCCCN)NC(=O)CNC(=O)[C@H](CO)NC(=O)[C@H](CCCNC(=N)N)NC(=O)CNC(=O)[C@H](CSSC[C@H](NC(=O)[C@H](CO)NC(=O)[C@H](CCC(N)=O)NC(=O)CNC(=O)[C@H](CCCCN)NC1=O)C(=O)N[C@@H](CCCNC(=N)N)C(=O)N[C@@H](CCCCN)C(=O)N[C@@H]([C@@H](C)O)C(=O)N[C@@H](CO)C(=O)N[C@@H](Cc1ccc(O)cc1)C(=O)N[C@@H](CC(=O)O)C(=O)N3)NC(=O)[C@H](CO)NC(=O)CNC(=O)[C@H](CO)NC2=O` [SVIB] (H-CKLKGQSCRKTSYDCCSGSCGRSGKC-NH2; disulfide 1-16, 8-20, 15-26): the IC50 in [2] is 0.0057 µM. In experiment [5] (pKi), this compound had a Ki of 0.00302 µM.
